Like-named read-outs stand apart in the source and are kept apart here.
Test: Single dose pharmacokinetic study in mice (iv 4 mg/Kg, po 20 mg/Kg), plasma concentration post-dosing
Assay type: in vivo, mouse
Details: male, C57BL/6, mouse, plasma, mouse; for concentration at 5 min: 5 min post dosing; for concentration at 0.25 h: 0.250 h post dosing; for concentration at 0.5 h: 0.500 h post dosing; for concentration at 1 h: 1.00 h post dosing; for concentration at 2 h: 2.00 h post dosing; for concentration at 4 h: 4.00 h post dosing; for concentration at 8 h: 8.00 h post dosing; for concentration at 24 h: 24.0 h post dosing
Description: This is advantageous leading to comparatively lower doses or less frequent administration. The procedure followed was: Male C57BL/6 mice were used at 7-9 weeks age with 3 animals per group. Mice were dosed with test compound using single intravenous bolus or oral gavage. Blood samples were taken via submandibular or saphenous vein for analysis of plasma concentrations of compound by LC-MS/MS at the following timepoints: IV (3 mice): 0.083, 0.25, 0.5, 1, 2, 4, 8 and 24 hours post dosing, PO (3 mice): 0.25, 0.5, 1, 2, 4, 8 and 24 hours post dosing. LC-MS/MS method for the quantitative determination of test compound in corresponding biological matrix was developed. […] The results are shown graphically in FIGS. 1A to 1C (MCC950) and FIGS. 2A to 2C (MCC7840).

CC(C)(O)c1coc(S(=O)(=O)NC(=O)Nc2c3c(cc4c2CCC4)CCC3)c1 [MCC_000950_016, N-((1,2,3,5,6,7-hexahydro-s-indacen-4-yl)carbamoyl)-4-(2-hydroxypropan-2-yl)furan-2-sulfonamide, reference compound]
concentration at 5 min (iv, 4 mg/kg, IV 4 mg/Kg, individual mice M1-M3, read-out: Plasma concentration, IV Time 0.0833 h): 20200 ng/mL | concentration at 5 min (iv, 4 mg/kg, IV 4 mg/Kg, mean of 3 mice, read-out: Plasma concentration, IV Time 0.0833 h, Mean IV): 18400 ng/mL | concentration at 0.25 h (iv, 4 mg/kg, IV 4 mg/Kg, individual mice M1-M3, read-out: Plasma concentration, IV Time 0.250 h): 16000 ng/mL | concentration at 0.25 h (iv, 4 mg/kg, IV 4 mg/Kg, mean of 3 mice, read-out: Plasma concentration, IV Time 0.250 h, Mean IV): 13000 ng/mL | concentration at 0.5 h (iv, 4 mg/kg, IV 4 mg/Kg, individual mice M1-M3, read-out: Plasma concentration, IV Time 0.500 h): 11700 ng/mL | concentration at 0.5 h (iv, 4 mg/kg, IV 4 mg/Kg, mean of 3 mice, read-out: Plasma concentration, IV Time 0.500 h, Mean IV): 10500 ng/mL | concentration at 1 h (iv, 4 mg/kg, IV 4 mg/Kg, individual mice M1-M3, read-out: Plasma concentration, IV Time 1.00 h): 9340 ng/mL | concentration at 1 h (iv, 4 mg/kg, IV 4 mg/Kg, mean of 3 mice, read-out: Plasma concentration, IV Time 1.00 h, Mean IV): 8430 ng/mL | concentration at 2 h (iv, 4 mg/kg, IV 4 mg/Kg, individual mice M1-M3, read-out: Plasma concentration, IV Time 2.00 h): 7410 ng/mL | concentration at 2 h (iv, 4 mg/kg, IV 4 mg/Kg, mean of 3 mice, read-out: Plasma concentration, IV Time 2.00 h, Mean IV): 6140 ng/mL | concentration at 4 h (iv, 4 mg/kg, IV 4 mg/Kg, individual mice M1-M3, read-out: Plasma concentration, IV Time 4.00 h): 3280 ng/mL | concentration at 4 h (iv, 4 mg/kg, IV 4 mg/Kg, mean of 3 mice, read-out: Plasma concentration, IV Time 4.00 h, Mean IV): 2600 ng/mL | concentration at 8 h (iv, 4 mg/kg, IV 4 mg/Kg, individual mice M1-M3, read-out: Plasma concentration, IV Time 8.00 h): 905 ng/mL | concentration at 8 h (iv, 4 mg/kg, IV 4 mg/Kg, mean of 3 mice, read-out: Plasma concentration, IV Time 8.00 h, Mean IV): 743 ng/mL | concentration at 24 h (iv, 4 mg/kg, IV 4 mg/Kg, individual mice M1-M3, read-out: Plasma concentration, IV Time 24.0 h): 3.29 ng/mL | concentration at 24 h (iv, 4 mg/kg, IV 4 mg/Kg, mean of 3 mice, read-out: Plasma concentration, IV Time 24.0 h, Mean IV): 2.65 ng/mL | AUC0-inf (iv, 4 mg/kg, IV 4 mg/Kg, individual mice M1-M3, read-out: AUC0-inf): 41900 ng·h/mL | AUC(0-t) (iv, 4 mg/kg, IV 4 mg/Kg, individual mice M1-M3, read-out: AUC0-last): 41900 ng·h/mL | C0 (iv, 4 mg/kg, IV 4 mg/Kg, individual mice M1-M3, read-out: C0): 22700 ng/mL | clearance (iv, 4 mg/kg, IV 4 mg/Kg, individual mice M1-M3, read-out: Cl): 1.59 mL/min/kg | MRT inf (iv, 4 mg/kg, IV 4 mg/Kg, individual mice M1-M3, read-out: MRT0-inf): 2.78 h | MRT last (iv, 4 mg/kg, IV 4 mg/Kg, individual mice M1-M3, read-out: MRT0-last): 2.77 h | half-life (iv, 4 mg/kg, IV 4 mg/Kg, individual mice M1-M3, read-out: T1/2 (converted)): 2 h | Vd (iv, 4 mg/kg, IV 4 mg/Kg, individual mice M1-M3, read-out: Vdss): 0.265 L/kg | AUC0-inf (iv, 4 mg/kg, IV 4 mg/Kg, mean of 3 mice, read-out: AUC0-inf, Mean IV): 35400 ng·h/mL | AUC(0-t) (iv, 4 mg/kg, IV 4 mg/Kg, mean of 3 mice, read-out: AUC0-last, Mean IV): 35400 ng·h/mL | clearance (iv, 4 mg/kg, IV 4 mg/Kg, mean of 3 mice, read-out: Cl, Mean IV): 1.92 mL/min/kg | MRT inf (iv, 4 mg/kg, IV 4 mg/Kg, mean of 3 mice, read-out: MRT0-inf, Mean IV): 2.67 h | MRT last (iv, 4 mg/kg, IV 4 mg/Kg, mean of 3 mice, read-out: MRT0-last, Mean IV): 2.67 h | half-life (iv, 4 mg/kg, IV 4 mg/Kg, mean of 3 mice, read-out: T1/2, Mean IV (converted)): 2 h | Vd (iv, 4 mg/kg, IV 4 mg/Kg, mean of 3 mice, read-out: Vdss, Mean IV): 0.306 L/kg | concentration at 0.25 h (po, 20 mg/kg, PO 20 mg/Kg, mean of 3 mice, read-out: Plasma concentration, PO Time 0.250 h, Mean PO): 33300 ng/mL | concentration at 0.5 h (po, 20 mg/kg, PO 20 mg/Kg, individual mice M4-M6, read-out: Plasma concentration, PO Time 0.500 h): 20400 ng/mL | concentration at 0.5 h (po, 20 mg/kg, PO 20 mg/Kg, mean of 3 mice, read-out: Plasma concentration, PO Time 0.500 h, Mean PO): 30100 ng/mL | concentration at 1 h (po, 20 mg/kg, PO 20 mg/Kg, individual mice M4-M6, read-out: Plasma concentration, PO Time 1.00 h): 19300 ng/mL | concentration at 1 h (po, 20 mg/kg, PO 20 mg/Kg, mean of 3 mice, read-out: Plasma concentration, PO Time 1.00 h, Mean PO): 30000 ng/mL | concentration at 2 h (po, 20 mg/kg, PO 20 mg/Kg, individual mice M4-M6, read-out: Plasma concentration, PO Time 2.00 h): 18500 ng/mL | concentration at 2 h (po, 20 mg/kg, PO 20 mg/Kg, mean of 3 mice, read-out: Plasma concentration, PO Time 2.00 h, Mean PO): 22400 ng/mL | concentration at 4 h (po, 20 mg/kg, PO 20 mg/Kg, individual mice M4-M6, read-out: Plasma concentration, PO Time 4.00 h): 10200 ng/mL | concentration at 4 h (po, 20 mg/kg, PO 20 mg/Kg, mean of 3 mice, read-out: Plasma concentration, PO Time 4.00 h, Mean PO): 11200 ng/mL | concentration at 8 h (po, 20 mg/kg, PO 20 mg/Kg, individual mice M4-M6, read-out: Plasma concentration, PO Time 8.00 h): 4330 ng/mL | concentration at 8 h (po, 20 mg/kg, PO 20 mg/Kg, mean of 3 mice, read-out: Plasma concentration, PO Time 8.00 h, Mean PO): 3790 ng/mL | concentration at 24 h (po, 20 mg/kg, PO 20 mg/Kg, mean of 3 mice, read-out: Plasma concentration, PO Time 24.0 h, Mean PO): 39.1 ng/mL | AUC0-inf (po, 20 mg/kg, PO 20 mg/Kg, individual mice M4-M6, read-out: AUC0-inf): 108000 ng·h/mL | AUC(0-t) (po, 20 mg/kg, PO 20 mg/Kg, individual mice M4-M6, read-out: AUC0-last): 108000 ng·h/mL | MRT inf (po, 20 mg/kg, PO 20 mg/Kg, individual mice M4-M6, read-out: MRT0-inf): 4.31 h | MRT last (po, 20 mg/kg, PO 20 mg/Kg, individual mice M4-M6, read-out: MRT0-last): 4.26 h | half-life (po, 20 mg/kg, PO 20 mg/Kg, individual mice M4-M6, read-out: T1/2 (converted)): 2.67 h | Tmax (po, 20 mg/kg, PO 20 mg/Kg, individual mice M4-M6, read-out: Tmax): 0.25 h
